The source of these data is patent publication US5459160A, “Iridoid derivatives and the use thereof as a drug” (Tsumura & Co., priority 1990, dated 1995).

Series [1] relates to cholesterol synthesis in liver slices. Nature of the series: Cholesterol synthesis from [1-14C] acetic acid in liver slices (Experimental Example 2). The series is classed as cell-based, male Wistar rats. Particulars: drug final concentration 0.1-1.0 mM, 37° C., 120 minutes; control 100; Table 2. The protocol:
Liver slices (0.5 mm) were prepared from male Wistar rats 5 weeks old acclimated for 10 days in a bright/dark inversion raising chamber (bright period: 8:00 p.m.-8:00 a.m.). […] Incubation was carried out at 37° C. for 120 minutes in 95% oxygen and 5% carbon dioxide. The reaction was stopped by adding 1 m.iota. of 15% potassium hydroxide/ethanol, and saponification was carried out at 80° C. for 2 hours. The sterol fraction was extracted by petroleum ether and was evaporated to driness. Thereafter, 1 m.iota. of acetone/ethanol (1:1) and 1 m.iota. of 0.5% digitonine were added, and the mixture was left standing for a night at room temperature. The precipitate was collected by centrifugal separation and was washed with 2 m.iota. of acetone/ether (1:1). The precipitate was further centrifuged. After the supernatant was discarded, the precipitate was dissolved in methanol and its radioactivity was measured.

A further series has as its system bile secretion. In words: Cholagogic action, bile secretion (Experimental Example 5). Particulars: intraduodenal. In kind it is in vivo, male Wistar rats. The protocol:
After male Wistar rats 7 weeks old were fasted for 24 hours, they were anesthetized by the interperitoneal administration of 1.25 g/kg (volume 2 m.iota./kg) of urethane. A polyethylene canula (SP-10, a product of Natsume Seisakusho) was inserted into a bile duct and after the bile was caused to flow out for 30 minutes, the bile was collected in the cource of 1 hour. Thereafter, each test drug was suspended or dissolved in a 1% aqueous Tween-80 solution, and was administered into the duodenum at a rate of 5 m.iota./kg. Furthermore, the bile was collected every hour in the course of five hours, and its weight was measured. Only a 1% Tween-80 solution was given as a control.
The results are tabulated in Tables 6, 7, 8, 9 and 10, wherein the bile secretion amount every hour was represented by a percentage with the bile secretion amount (mg) one hour before the dose of the test drug being 100.

A further series can be described thus: Acute toxicity test. Particulars: mouse, in vivo, ip; male S.P.P. mice, abdominally administered; Table 11. How it is done: The acute toxicity test was carried out by abdominally administering each test drug to male S.P.P. mice and determining an LD50 value.
For the next series, the system named is hyperlipemia. Nature of the series: Anti-hyperlipemia test in rats on high fat food (Experimental Example 1). The series is classed as in vivo, Male Wistar rats. The settings on record: peroral once a day, two weeks, control 100, Table 1. From the text: Male Wistar rats 6.5 weeks old were allowed to freely intake a high fat food (containing 1% of cholesterol, 0.5% of sodium cholate, 12% of beef tallow and 20% of standard chow) in the cource of two weeks, to thus cause an outbreak of hyperlipemia. The dose of the drug was started simultaneously with the application of the high fat food, and was perorally given once a day through a stomach tube until the end of the experiment. The drugs were all suspended in a cane sugar fatty acid ester and were administered. The oily compounds were adjusted in advance to 100 mg/m.iota. by diethyl ether. A suitable amount was collected at the time of the dose and after diethyl ether was evaporated and removed, it was suspended in a cane sugar fatty acid ester (1% ryoto sugar ester) and then given. After the final dose of the drug, the rats were fasted for about 18 hours, and the blood was sampled to measure the blood serum lipid. The blood serum lipid was measured by using a TBA-380 biochemical analyzer (a product of Toshiba Medical Co.,) unless a particular hindrance occurred.

The test system of series [2] is cholic acid and chenodeoxycholic acid synthetic activity in liver cells. In words: Synthetic activity of bile acid (cholic acid and chenodeoxycholic acid) in incubated liver cells (Experimental Example 3). In kind it is cell-based, male Wistar rats. Particulars: Rattus norvegicus, Hepatocyte, 10^-6 M, 24 hours, 37° C., control 100, Table 4. The protocol:
Influences on Synthetic Activity of Bilic Acid in Incubated Liver Cell
The liver cells were separated from male Wistar rats 5.0-5.5 weeks old using a reflux method in accordance with the method of Nakamura et al (Toshikazu Nakamura "The Experimental Method for the Primary Cultured Hepatocytes", 1987). In this case, the separation of the cells was started at 9-10:00 a.m. The separated liver cells were floated in a Williams E medium inactivated by heat-treatment and containing 10% FBS, 20 mU/m.iota. insulin, […] dexamethasone, 100 IU/m.iota. peniciline and 100 μg/m.iota. streptomycin so that the cell density became 1×10^5 cells/cm^2 /0.2 m.iota.. The liver cells were planted in a cell density of 1×10^5 cells/cm^2 /0.2 m.iota. in a dish having a diameter of 60 mm. After incubation at 37° C. for 4 hours, a medium exchange was made and the medium was changed to 3 m.iota.. Next, [4-^14 C] cholesterol was added in an amount of 11.655 kBq per dish, and a 0.33% ethanol solution of each test drug was added. Control used only 0.33% ethanol. After incubation was carried out at 37° C. for 24 hours, the synthetic activity of cholic acid and chemodexycholic acid generated in the cells and the medium were measured.
Measurement of Cholic Acid and Chenodeoxycholic Acid Synthetic Activity
The measurement of cholic acid and chenodeoxycholic acid synthetic activity was carried out in accordance with the method of M. G. Pricen et al (Hans M. G. Pricen, Chrisstine M. G. HuJismans, Folkerr Kuipers, Roel J. Vonk and Herman Jan M. Kempen, J. Clin. Invest., 78: 1064-1071, 1986). Twenty-four hours later, the cells and the medium were collected from the incubated liver cells and the cells were pulverized by a ultrasonic pulverizer. Bile acid was separated and eluted by a column cartridge having an opposite phase system, i.e., "Sep-pak"® C18 (Waters Associates, Milford, Mass.), and the conjugation of conjugated bile acid was hydrolyzed using choloylglycine hydrolase. The extraction of bile acid was carried out using chloroform after the solution was rendered acidic by hydrochloric acid. The extract was dissolved in 100 μ.iota. of water:methanol (1:4, containing 40 μg/10 μ.iota. cholic acid and 100 μg/100 μ.iota. chenodeoxycholic acid). 80 μ.iota. of this solution was spotted onto an aluminum plate (MERCK, ART 5582) and was developed using a developing solution consisting of benzene/1,4-dioxane/acetic acid (20:10:2). After the TLC plate was exposed to an iodine gas stream and each spot of bile acid was confirmed, it was cut off and its radioactivity was measured by a liquid scintillation counter. To correct the proportion of elution of the Sep-pak and the hydroclysis and extraction of conjugated bile acid by choloylglycine hydrolase, 2 nCi of [^3 H(G)] taurocholic acid was added and 3H of the spot of cholic acid was measured after the supersonic pulverization and correction was thus carried out (TsuJita, Y., Kuroda, M., Shimada, Y., Tanzawa, K., Arai, M., Kenko, I., Tanaka, M., Tarumi, C., Watanabe, Y., and Fujii, Biochemical et Biophysics Acta. 877:50-60, 1986).
Non-radioactive cholic acid and chenodeoxycholic acid were added as a carrier, to clarify the position of the spot by the iodine gas stream when bile acid was developed, but for the β-muricholic acid, the position of the spot was indefinite even when the non-radioactive acids were added. Therefore, the portion estimated by the Rf value described in the reference was cut off and measured again.

The mark [3] stands for this setting: 0-1 hour after dose, control 82.9, Table 10.
The mark [4] stands for this setting: 1-2 hour after dose, control 74.1, Table 10.
[5] abbreviates: 2-3 hour after dose, control 66.1, Table 10.
[6] abbreviates: 3-4 hour after dose, control 59.8, Table 10.
Setting [7] is: 4-5 hour after dose, control 53.3, Table 10.

Like-named read-outs stand apart in the source and are kept apart here.

Take `COC(=O)C1=COC(OC(=O)c2ccccc2)C2C(C)=CCC12` [Definite Example 36, methyl (2S, 4aS, 7aS)-1-benzoyloxy-1,4a, 5,7a-tetrahydro-7-methylcyclopenta[c]pyran-4-carboxylate]: the “Relative amount of synthesized cholesterol (%)” value (from here on “Relative amount … (%)”) in series [1] worked out at 72.4%.

Take `COC(=O)C1=COC(O)[C@@H]2C(C=O)=CC[C@H]12` (stereo partly drawn) [Definite Example 23, methyl (4aS, 7aS)-7-formyl-1,4a, 5,7a-tetrahydro-1-hydroxycyclopenta[c]pyran-4-carboxylate]: the “Relative amount … (%)” value in series [1] is on record as 80.1%.

For `COC(=O)C1=COC(=O)[C@@H]2[C@H](C)CC[C@H]12` [Definite Example 32, methyl (4aS, 7R, 7aR)-1,4a, 5,6,7,7a-hexahydro-7-methyl-1-oxocyclopenta[c]pyran-4-carboxylate], the “Relative amount … (%)” value in series [1] was found to be 96.2%. Besides, the “Bile secretion amount, percentage of the hour before dose” value (“Bile secretion amount, percentage” below) in the series on bile secretion (setting [3]) worked out at 110.7%; in the series on bile secretion (setting [4]), 80.6%; in the series with bile secretion (setting [5]), 66.2%; in the series on bile secretion (setting [6]), 55.6%; in the series with bile secretion (setting [7]), 49.6%.

As to `CCOC(C)O[C@@H]1OC=C(C(=O)OC)[C@H]2CC=C(C=O)[C@@H]12` (stereo partly drawn) [Definite Example 22, methyl (1S, 4aS, 7aS)-1-[1-(ethoxy)ethoxy]-7-formyl-1,4a, 5,7a-tetrahydrocyclopenta[c]pyran-4-carboxylate], the “Relative amount … (%)” value in series [1] is on record as 86.2%.

Consider `COC(=O)C1=CO[C@@H](OC(C)=O)[C@H]2[C@@H]1CC1OCC12OC(C)=O` (stereo partly drawn) [Definite Example 30, methyl (iS, 4aS, 7aS)-1,7-diacetoxy-6,7-(epoxymethano)-1,4a, 5,6,7,7a-hexahydrocyclopenta[c]pyran-4-carboxylate], for which the “Relative amount … (%)” value in series [1] was 50.1%. The LD50 in the series “Acute toxicity test” was determined as 468 mg/kg. Also, the “Bile secretion amount, percentage” value was found to be 97.9% with bile secretion (setting [3]); 83.1% in the series with bile secretion (setting [4]); 69.7% with bile secretion (setting [5]); 61.0% with bile secretion (setting [6]); 53.9% in the series on bile secretion (setting [7]).

`CC(=O)O[C@@H]1OC=C(CO)[C@H]2CC=C(CO)[C@@H]12` [Definite Example 27, (1S, 4aS, 7aS)-1-acetoxy-4,7-bis(hydroxymethyl)-1,4a, 5,7a-tetrahydrocyclopenta[c]pyran]: the “Relative amount … (%)” value in series [1] came out at 73.5%. The LD50 in the series “Acute toxicity test” is 473 mg/kg. The “Bile secretion amount, percentage” value is reported as 98.3% in the series with bile secretion (setting [3]); 75.3% in the series with bile secretion (setting [4]); 59.0% with bile secretion (setting [5]); 48.7% in the series with bile secretion (setting [6]); 43.5% with bile secretion (setting [7]).

In the case of `COC(=O)C1=COC(O)[C@@H]2[C@H](C)CC[C@H]12` (stereo partly drawn) [Definite Example 31, methyl (4aS, 7R, 7aR)-1,4a, 5,6,7,7a-hexahydro-1-hydroxy-7-methylcyclopenta[c]pyran-4-carboxylate], the results for the “Blood serum cholesterol (%)” value in the series on hyperlipemia (10 mg/kg) and in the series with hyperlipemia (30 mg/kg) were 82.0% and 96.1%, respectively. Moreover, the “Blood serum triglyceride (%)” value with hyperlipemia (10 mg/kg) is recorded as 79.0%; with hyperlipemia (30 mg/kg), 76.5%. The molecule further showed an LD50 in “Acute toxicity test” of 814 mg/kg. Further, the “Bile secretion amount, percentage” value was determined as 126.7% in the series on bile secretion (0-1 hour after dose, control 84.1, Table 8); 88.0% in the series on bile secretion (1-2 hour after dose, control 72.5, Table 8); 73.0% in the series on bile secretion (2-3 hour after dose, control 63.8, Table 8); 63.7% in the series on bile secretion (3-4 hour after dose, control 56.7, Table 8); 55.1% in the series on bile secretion (4-5 hour after dose, control 51.2, Table 8). In addition, the activity at 1 µM came out at 113% in series [2] (read-out: Relative amount of synthesized chenodeoxycholic acid) and 105% in series [2] (read-out: Relative amount of synthesized cholic acid).

In the case of `COC(=O)C1=CO[C@@H](OC(C)=O)[C@@H]2C(C)=CC[C@H]12` [Definite Example 38, methyl (1S, 4aS, 7aS)-1-acetoxy-1,4a, 5,7a-tetrahydro-7-methylcyclopenta[c]pyran-4-carboxylate], the “Relative amount … (%)” value in series [1] came to 72.8%.

One may read the LD50 as the dose at which mortality reaches 50%.
